Laboratory results reported in ChEMBL document CHEMBL5291721, “A preclinical secondary pharmacology resource illuminates target-adverse drug reaction associations of marketed drugs” (Nat Commun, 2023).

Legend:
[1] = biological target: T1, Gastrin/cholecystokinin type B receptor (Homo sapiens, UniProt P32239)
T1 sequence (P32239 whole entry): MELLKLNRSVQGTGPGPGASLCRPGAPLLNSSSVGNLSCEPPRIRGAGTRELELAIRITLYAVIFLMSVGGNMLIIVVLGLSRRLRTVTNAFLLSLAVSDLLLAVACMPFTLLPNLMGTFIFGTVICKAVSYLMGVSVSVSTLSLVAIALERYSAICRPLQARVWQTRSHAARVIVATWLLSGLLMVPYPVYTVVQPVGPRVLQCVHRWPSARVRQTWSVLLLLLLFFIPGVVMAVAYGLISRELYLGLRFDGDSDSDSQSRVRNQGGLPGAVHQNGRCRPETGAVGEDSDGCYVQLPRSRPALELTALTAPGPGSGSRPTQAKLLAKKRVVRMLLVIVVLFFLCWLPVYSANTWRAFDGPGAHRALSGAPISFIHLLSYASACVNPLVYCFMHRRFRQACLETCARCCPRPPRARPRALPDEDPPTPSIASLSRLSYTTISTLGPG

[2] = biological target: T2, Endothelin-1 receptor (Homo sapiens, UniProt P25101)
T2 sequence (P25101 whole entry): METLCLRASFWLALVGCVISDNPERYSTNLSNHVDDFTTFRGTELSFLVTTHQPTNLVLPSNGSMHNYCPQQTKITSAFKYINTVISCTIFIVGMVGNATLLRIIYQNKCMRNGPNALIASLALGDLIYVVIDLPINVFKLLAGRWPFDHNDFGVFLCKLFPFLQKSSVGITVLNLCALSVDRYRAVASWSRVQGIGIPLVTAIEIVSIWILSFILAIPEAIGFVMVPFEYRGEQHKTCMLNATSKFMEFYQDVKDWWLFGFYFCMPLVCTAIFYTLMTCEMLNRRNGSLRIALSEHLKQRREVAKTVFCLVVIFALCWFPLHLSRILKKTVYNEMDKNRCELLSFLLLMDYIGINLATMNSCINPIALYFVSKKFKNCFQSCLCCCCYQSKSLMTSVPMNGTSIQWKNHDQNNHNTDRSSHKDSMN

[3] = biological target: T3, 5-hydroxytryptamine receptor 2B (Homo sapiens, UniProt P41595); type: functional, cell-based
T3 sequence (P41595 whole entry): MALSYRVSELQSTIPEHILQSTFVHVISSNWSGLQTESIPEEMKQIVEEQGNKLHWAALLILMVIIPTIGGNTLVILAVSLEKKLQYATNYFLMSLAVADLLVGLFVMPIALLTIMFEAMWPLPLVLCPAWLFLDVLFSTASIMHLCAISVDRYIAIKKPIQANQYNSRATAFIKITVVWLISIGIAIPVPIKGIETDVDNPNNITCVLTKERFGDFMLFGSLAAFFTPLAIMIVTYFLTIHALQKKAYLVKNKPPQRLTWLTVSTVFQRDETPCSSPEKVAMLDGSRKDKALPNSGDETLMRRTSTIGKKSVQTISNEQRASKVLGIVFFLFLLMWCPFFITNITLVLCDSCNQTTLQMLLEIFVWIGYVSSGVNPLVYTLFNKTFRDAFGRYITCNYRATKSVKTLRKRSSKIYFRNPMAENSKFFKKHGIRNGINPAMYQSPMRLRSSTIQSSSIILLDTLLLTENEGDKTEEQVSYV

[4] = biological target: T3, 5-hydroxytryptamine receptor 2B; type: functional, cell-based; remark: listed apart in the source
[5] = biological target: Sodium-dependent noradrenaline transporter (Homo sapiens, UniProt P23975)
Chain of Sodium-dependent noradrenaline transporter (P23975 whole entry): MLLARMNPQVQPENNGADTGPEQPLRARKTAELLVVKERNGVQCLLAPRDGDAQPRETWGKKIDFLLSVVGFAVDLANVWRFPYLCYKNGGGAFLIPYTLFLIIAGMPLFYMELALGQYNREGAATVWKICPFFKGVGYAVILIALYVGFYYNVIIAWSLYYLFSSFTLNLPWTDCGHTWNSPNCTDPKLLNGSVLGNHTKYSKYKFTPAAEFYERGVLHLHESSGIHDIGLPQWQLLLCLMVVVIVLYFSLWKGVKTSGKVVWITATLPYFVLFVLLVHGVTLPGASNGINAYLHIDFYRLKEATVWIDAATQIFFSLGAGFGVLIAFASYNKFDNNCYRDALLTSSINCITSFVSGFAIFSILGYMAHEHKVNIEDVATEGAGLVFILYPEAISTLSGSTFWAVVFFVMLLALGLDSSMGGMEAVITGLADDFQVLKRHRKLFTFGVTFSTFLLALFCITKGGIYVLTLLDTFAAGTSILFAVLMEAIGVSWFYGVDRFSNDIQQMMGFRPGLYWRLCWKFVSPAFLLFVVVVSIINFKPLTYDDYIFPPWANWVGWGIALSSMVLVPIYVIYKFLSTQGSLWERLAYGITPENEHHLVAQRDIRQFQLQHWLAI

[6] = biological target: T4, B2 bradykinin receptor (Homo sapiens, UniProt P30411)
T4 sequence (P30411 whole entry): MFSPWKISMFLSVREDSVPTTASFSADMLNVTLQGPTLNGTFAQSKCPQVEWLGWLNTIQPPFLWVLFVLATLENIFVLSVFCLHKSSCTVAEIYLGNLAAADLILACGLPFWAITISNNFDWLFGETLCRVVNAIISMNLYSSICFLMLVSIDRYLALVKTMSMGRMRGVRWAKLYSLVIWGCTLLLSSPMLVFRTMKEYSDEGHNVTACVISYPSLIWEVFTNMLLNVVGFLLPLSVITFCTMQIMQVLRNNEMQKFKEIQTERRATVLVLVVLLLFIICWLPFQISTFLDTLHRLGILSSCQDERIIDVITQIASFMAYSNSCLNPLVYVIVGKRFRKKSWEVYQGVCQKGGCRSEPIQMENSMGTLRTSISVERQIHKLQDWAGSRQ

[7] = biological target: T5, Alpha-1A adrenergic receptor (Homo sapiens, UniProt P35348); type: functional, cell-based
T5 sequence (P35348 whole entry): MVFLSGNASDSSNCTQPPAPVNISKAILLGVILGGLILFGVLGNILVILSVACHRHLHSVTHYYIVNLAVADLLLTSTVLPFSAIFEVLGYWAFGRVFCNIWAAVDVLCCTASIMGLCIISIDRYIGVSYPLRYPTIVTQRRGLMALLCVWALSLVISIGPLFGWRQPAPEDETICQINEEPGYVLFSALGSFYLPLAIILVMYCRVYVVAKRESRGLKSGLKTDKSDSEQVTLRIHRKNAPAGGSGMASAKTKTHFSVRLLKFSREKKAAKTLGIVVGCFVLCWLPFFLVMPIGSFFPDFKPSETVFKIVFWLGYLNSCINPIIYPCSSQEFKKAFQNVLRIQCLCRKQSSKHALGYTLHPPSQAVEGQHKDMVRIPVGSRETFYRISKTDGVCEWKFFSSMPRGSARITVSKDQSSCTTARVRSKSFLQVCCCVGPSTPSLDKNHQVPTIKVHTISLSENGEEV

[8] = biological target: T6, Muscarinic acetylcholine receptor M1 (Homo sapiens, UniProt P11229); type: functional, cell-based
T6 sequence (P11229 whole entry): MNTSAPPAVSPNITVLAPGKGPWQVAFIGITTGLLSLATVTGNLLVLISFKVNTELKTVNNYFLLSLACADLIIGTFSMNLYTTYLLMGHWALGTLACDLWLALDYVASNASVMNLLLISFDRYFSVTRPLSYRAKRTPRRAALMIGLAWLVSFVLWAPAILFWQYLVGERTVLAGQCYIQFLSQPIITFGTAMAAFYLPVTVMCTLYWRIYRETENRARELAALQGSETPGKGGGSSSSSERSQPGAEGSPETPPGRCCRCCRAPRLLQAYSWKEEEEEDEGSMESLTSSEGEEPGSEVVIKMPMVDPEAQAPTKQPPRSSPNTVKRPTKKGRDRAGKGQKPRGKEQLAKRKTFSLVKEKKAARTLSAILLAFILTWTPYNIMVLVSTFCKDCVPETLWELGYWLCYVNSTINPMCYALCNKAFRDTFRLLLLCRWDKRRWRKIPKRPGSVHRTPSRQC

[9] = biological target: T7, 5-hydroxytryptamine receptor 1A (Homo sapiens, UniProt P08908); type: functional, cell-based
T7 sequence (P08908 whole entry): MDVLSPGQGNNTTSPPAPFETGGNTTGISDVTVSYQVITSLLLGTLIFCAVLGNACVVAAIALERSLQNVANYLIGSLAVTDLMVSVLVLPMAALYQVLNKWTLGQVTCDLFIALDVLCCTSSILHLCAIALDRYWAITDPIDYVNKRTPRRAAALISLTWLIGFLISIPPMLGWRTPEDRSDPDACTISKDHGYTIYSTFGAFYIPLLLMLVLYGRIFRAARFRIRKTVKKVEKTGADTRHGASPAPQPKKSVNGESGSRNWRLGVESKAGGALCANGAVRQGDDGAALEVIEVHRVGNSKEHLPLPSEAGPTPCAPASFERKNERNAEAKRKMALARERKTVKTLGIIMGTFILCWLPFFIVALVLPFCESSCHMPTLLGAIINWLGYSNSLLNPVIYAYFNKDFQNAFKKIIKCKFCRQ

[10] = biological target: T7, 5-hydroxytryptamine receptor 1A; type: functional, cell-based; remark: listed apart in the source
Further: assay procedure not described here.

SMILES | AC50 [7] | AC50 [8] | other results
CCCN(CCC)C(=O)Cc1c(-c2ccc(Cl)cc2)nc2ccc(Cl)cn12 [ALPIDEM] | > 30 µM | > 30 µM | AC50 [1]: > 30 µM; AC50 [2]: > 10 µM; AC50 [3]: > 30 µM; AC50 [4]: > 30 µM; AC50 [5]: > 30 µM; AC50 [6]: > 30 µM; AC50 [9]: > 30 µM
C=CCN1CC[C@]23CCCC[C@H]2[C@H]1Cc1ccc(O)cc13 [LEVALLORPHAN] | > 30 µM | > 30 µM | 
N[C@@H](CO)C(=O)O [SERINE] | > 30 µM | > 30 µM | 
[H]/N=C(\N/C(=N/[H])Nc1ccc(Cl)cc1)NC(C)C [PROGUANIL] | > 30 µM | > 30 µM | 
Cc1ccccc1C(=O)Nc1ccc(C(=O)N2CCCC(N(C)C)c3ccccc32)cc1 (stereo not drawn) [MOZAVAPTAN] | > 30 µM | > 30 µM | 
COc1c2ccoc2cc2oc(=O)ccc12 [BERGAPTEN] | > 30 µM | > 30 µM | 
N[C@@H](CS)C(=O)O [CYSTEINE] | > 30 µM | > 30 µM | 
CC(C)C[C@H](NC(=O)CNC(=O)c1cc(Cl)ccc1Cl)B(O)O [IXAZOMIB] | > 30 µM | > 30 µM | 
O=C(O)c1cc(/N=N/c2ccc(O)c(C(=O)O)c2)ccc1O [OLSALAZINE] | > 30 µM | > 30 µM | 
CN1CCCCC1CCN1c2ccccc2Sc2ccc([S+](C)[O-])cc21 (stereo not drawn) [MESORIDAZINE] | > 30 µM | > 30 µM | 
O=C1/C(=C2\Nc3ccc(S(=O)(=O)O)cc3C2=O)Nc2ccc(S(=O)(=O)O)cc21 [INDIGOTINDISULFONATE] | > 30 µM | > 30 µM | 
CC(=O)O[C@]1(C(C)=O)CC[C@H]2[C@@H]3C=C(C)C4=CC(=O)CC[C@@H]4[C@H]3CC[C@@]21C [NOMEGESTROL ACETATE] | > 30 µM | > 30 µM | AC50 [3]: > 30 µM; AC50 [4]: > 30 µM; AC50 [5]: > 30 µM; AC50 [9]: > 30 µM
FC(F)(F)c1ccc(CNc2ccc(Cc3c[nH]c4ncc(Cl)cc34)cn2)cn1 [PEXIDARTINIB] | > 30 µM | > 30 µM | 
CN1CCC(=C2c3ccccc3Sc3ccccc32)CC1 [PIMETHIXENE] | > 30 µM | > 30 µM | 
CC(C)(O)CNc1nc(Nc2ccnc(C(F)(F)F)c2)nc(-c2cccc(C(F)(F)F)n2)n1 [ENASIDENIB] | > 30 µM | > 30 µM | 
CNC(=O)Oc1cccc2ccccc12 [CARBARIL] | > 30 µM | > 30 µM | 
CC[C@H](C)C[C@H](C)CCCCCCCCC(=O)N[C@H]1C[C@@H](O)[C@@H](NCCN)NC(=O)[C@@H]2[C@@H](O)CCN2C(=O)[C@H]([C@H](O)CCN)NC(=O)[C@H]([C@H](O)[C@@H](O)c2ccc(O)cc2)NC(=O)[C@@H]2C[C@@H](O)CN2C(=O)[C@H]([C@@H](C)O)NC1=O [CASPOFUNGIN] | > 30 µM | > 30 µM | 
CCc1nc(C(N)=O)c(Nc2ccc(N3CCC(N4CCN(C)CC4)CC3)c(OC)c2)nc1NC1CCOCC1 [GILTERITINIB] | > 30 µM | > 30 µM | 
CC[C@H]1OC(=O)[C@H](C)C(=O)[C@H](C)[C@@H](O[C@@H]2O[C@H](C)C[C@H](N(C)C)[C@H]2O)[C@](C)(OC)C[C@@H](C)C(=O)[C@H](C)[C@H]2N(CCCCn3cnc(-c4cccnc4)c3)C(=O)O[C@]12C [TELITHROMYCIN] | > 30 µM | > 30 µM | 
OC[C@H]1O[C@@H](c2ccc(F)c(Cc3cc4ccccc4s3)c2)[C@H](O)[C@@H](O)[C@@H]1O [IPRAGLIFLOZIN] | > 30 µM | > 30 µM | 
CC(=O)Oc1cc(C(F)(F)F)ccc1C(=O)O [TRIFLUSAL] | > 30 µM | > 30 µM | 
COc1cc2nccc(Oc3ccc(NC(=O)C4(C(=O)Nc5ccc(F)cc5)CC4)cc3)c2cc1OC [CABOZANTINIB] | > 30 µM | > 30 µM | AC50 [10]: > 30 µM; AC50 [2]: > 30 µM; AC50 [3]: 5.8 µM; AC50 [4]: > 30 µM; AC50 [5]: > 30 µM; AC50 [9]: > 30 µM
C[C@@H]1C[C@H]2[C@@H]3CCC4=CC(=O)C=C[C@]4(C)[C@@]3(Cl)[C@@H](O)C[C@]2(C)[C@@]1(OC(=O)c1ccco1)C(=O)CCl [MOMETASONE FUROATE] | > 30 µM | > 30 µM | 
